Legend:
Test in all cases: relative viability (nuclei count vs DMSO), 5 days (fraction); higher = more cells survive
HOP-62 = system: HOP-62
Method in brief: (§1)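 Five library-drug doses in √10 steps were combined with a fixed anchor-drug dose, or a single drug was given alone, by pin tool to lung cancer cell lines in 1536-well plates the day after seeding. Nuclei were stained and counted after 5 days. Relative viability is the nuclei count in treated wells over that in vehicle wells, taken as the median of duplicate plates.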

EMC-BAC-2 = system: EMC-BAC-2
Method in brief: as §1

COR-L 105 = system: COR-L 105
Method in brief: as §1

NCI-H2405 = system: NCI-H2405
Method in brief: as §1

NCI-H1734 = system: NCI-H1734
Method in brief: as §1

COR-L23 = system: COR-L23
Method in brief: as §1

PC-14 = system: PC-14
Method in brief: as §1

NCI-H1993 = system: NCI-H1993
Method in brief: as §1

NCI-H1915 = system: NCI-H1915
Method in brief: as §1

HCC-78 = system: HCC-78
Method in brief: as §1

LK-2 = system: LK-2
Method in brief: as §1

NCI-H647 = system: NCI-H647
Method in brief: as §1

EKVX = system: EKVX
Method in brief: as §1

HCC-15 = system: HCC-15
Method in brief: as §1

NCI-H522 = system: NCI-H522
Method in brief: as §1

HCC-366 = system: HCC-366
Method in brief: as §1

201T = system: 201T
Method in brief: as §1

NCI-H661 = system: NCI-H661
Method in brief: as §1

A-427 = system: A-427
Method in brief: as §1

NCI-H460 = system: NCI-H460
Method in brief: as §1

BEN = system: BEN
Method in brief: as §1

SK-MES-1 = system: SK-MES-1
Method in brief: as §1

Compound: Cc1cn(-c2cc(NC(=O)c3ccc(C)c(Nc4nccc(-c5cccnc5)n4)c3)cc(C(F)(F)F)c2)cn1 [Nilotinib] + CC(=O)c1c(C)c2cnc(Nc3ccc(N4CCNCC4)cn3)nc2n(C2CCCC2)c1=O [Palbociclib] (partner 0.5 µM)
- relative viability (HOP-62; first compound 0.003162 µM): 0.425
- relative viability (HOP-62; first compound 0.01 µM): 0.439
- relative viability (EMC-BAC-2; first compound 0.001 µM): 0.477
- relative viability (EMC-BAC-2; first compound 0.003162 µM): 0.47
- relative viability (EMC-BAC-2; first compound 0.01 µM): 0.481
- relative viability (EMC-BAC-2; first compound 0.03162 µM): 0.487
- relative viability (EMC-BAC-2; first compound 0.1 µM): 0.526
- relative viability (COR-L 105; first compound 0.001 µM): 0.396
- relative viability (COR-L 105; first compound 0.003162 µM): 0.413
- relative viability (COR-L 105; first compound 0.01 µM): 0.28
- relative viability (COR-L 105; first compound 0.03162 µM): 0.399
- relative viability (COR-L 105; first compound 0.1 µM): 0.391
- relative viability (NCI-H2405; first compound 0.001 µM): 0.493
- relative viability (NCI-H2405; first compound 0.003162 µM): 0.485
- relative viability (NCI-H2405; first compound 0.01 µM): 0.529
- relative viability (NCI-H2405; first compound 0.03162 µM): 0.467
- relative viability (NCI-H2405; first compound 0.1 µM): 0.404
- relative viability (NCI-H1734; first compound 0.001 µM): 0.333
- relative viability (NCI-H1734; first compound 0.003162 µM): 0.36
- relative viability (NCI-H1734; first compound 0.01 µM): 0.372
- relative viability (NCI-H1734; first compound 0.03162 µM): 0.312
- relative viability (NCI-H1734; first compound 0.1 µM): 0.317
- relative viability (COR-L23; first compound 0.001 µM): 0.288
- relative viability (COR-L23; first compound 0.003162 µM): 0.301
- relative viability (COR-L23; first compound 0.01 µM): 0.317
- relative viability (COR-L23; first compound 0.03162 µM): 0.268
- relative viability (COR-L23; first compound 0.1 µM): 0.223
- relative viability (PC-14; first compound 0.001 µM): 0.45
- relative viability (PC-14; first compound 0.003162 µM): 0.741
- relative viability (PC-14; first compound 0.01 µM): 0.666
- relative viability (PC-14; first compound 0.03162 µM): 0.426
- relative viability (PC-14; first compound 0.1 µM): 0.713
- relative viability (NCI-H1993; first compound 0.001 µM): 0.688
- relative viability (NCI-H1993; first compound 0.003162 µM): 0.705
- relative viability (NCI-H1993; first compound 0.01 µM): 0.762
- relative viability (NCI-H1993; first compound 0.03162 µM): 0.624
- relative viability (NCI-H1993; first compound 0.1 µM): 0.851
- relative viability (NCI-H1915; first compound 0.001 µM): 0.492
- relative viability (NCI-H1915; first compound 0.003162 µM): 0.535
- relative viability (NCI-H1915; first compound 0.01 µM): 0.53
- relative viability (NCI-H1915; first compound 0.03162 µM): 0.502
- relative viability (NCI-H1915; first compound 0.1 µM): 0.475
- relative viability (HCC-78; first compound 0.001 µM): 0.476
- relative viability (HCC-78; first compound 0.003162 µM): 0.509
- relative viability (HCC-78; first compound 0.01 µM): 0.532
- relative viability (HCC-78; first compound 0.03162 µM): 0.468
- relative viability (HCC-78; first compound 0.1 µM): 0.524
- relative viability (LK-2; first compound 0.001 µM): 0.751
- relative viability (LK-2; first compound 0.003162 µM): 0.475
- relative viability (LK-2; first compound 0.01 µM): 0.788
- relative viability (LK-2; first compound 0.03162 µM): 0.698
- relative viability (LK-2; first compound 0.1 µM): 0.992
- relative viability (NCI-H647; first compound 0.001 µM): 0.384
- relative viability (NCI-H647; first compound 0.003162 µM): 0.382
- relative viability (NCI-H647; first compound 0.01 µM): 0.468
- relative viability (NCI-H647; first compound 0.03162 µM): 0.266
- relative viability (NCI-H647; first compound 0.1 µM): 0.26
- relative viability (EKVX; first compound 0.001 µM): 0.372
- relative viability (EKVX; first compound 0.003162 µM): 0.492
- relative viability (EKVX; first compound 0.01 µM): 0.479
- relative viability (EKVX; first compound 0.03162 µM): 0.379
- relative viability (EKVX; first compound 0.1 µM): 0.62
- relative viability (HCC-15; first compound 0.001 µM): 0.688
- relative viability (HCC-15; first compound 0.003162 µM): 0.882
- relative viability (HCC-15; first compound 0.01 µM): 0.87
- relative viability (HCC-15; first compound 0.03162 µM): 0.578
- relative viability (HCC-15; first compound 0.1 µM): 0.476
- relative viability (NCI-H522; first compound 0.03162 µM): 0.819
- relative viability (NCI-H522; first compound 0.1 µM): 0.805
- relative viability (HCC-366; first compound 0.001 µM): 0.244
- relative viability (HCC-366; first compound 0.003162 µM): 0.379
- relative viability (HCC-366; first compound 0.01 µM): 0.396
- relative viability (HCC-366; first compound 0.03162 µM): 0.36
- relative viability (HCC-366; first compound 0.1 µM): 0.303
- relative viability (201T; first compound 0.001 µM): 0.326
- relative viability (201T; first compound 0.003162 µM): 0.371
- relative viability (201T; first compound 0.01 µM): 0.363
- relative viability (201T; first compound 0.03162 µM): 0.363
- relative viability (201T; first compound 0.1 µM): 0.351
- relative viability (NCI-H661; first compound 0.001 µM): 0.438
- relative viability (NCI-H661; first compound 0.003162 µM): 0.396
- relative viability (NCI-H661; first compound 0.01 µM): 0.404
- relative viability (NCI-H661; first compound 0.03162 µM): 0.444
- relative viability (NCI-H661; first compound 0.1 µM): 0.361
- relative viability (A-427; first compound 0.001 µM): 0.51
- relative viability (A-427; first compound 0.003162 µM): 0.493
- relative viability (A-427; first compound 0.01 µM): 0.524
- relative viability (A-427; first compound 0.03162 µM): 0.552
- relative viability (A-427; first compound 0.1 µM): 0.466
- relative viability (NCI-H460; first compound 0.001 µM): 0.101
- relative viability (NCI-H460; first compound 0.003162 µM): 0.0788
- relative viability (NCI-H460; first compound 0.01 µM): 0.144
- relative viability (NCI-H460; first compound 0.03162 µM): 0.148
- relative viability (NCI-H460; first compound 0.1 µM): 0.134
- relative viability (BEN; first compound 0.001 µM): 0.484
- relative viability (BEN; first compound 0.003162 µM): 0.489
- relative viability (BEN; first compound 0.01 µM): 0.465
- relative viability (BEN; first compound 0.03162 µM): 0.548
- relative viability (BEN; first compound 0.1 µM): 0.503
- relative viability (SK-MES-1; first compound 0.001 µM): 0.347
- relative viability (SK-MES-1; first compound 0.003162 µM): 0.298
- relative viability (SK-MES-1; first compound 0.01 µM): 0.313
- relative viability (SK-MES-1; first compound 0.03162 µM): 0.377
- relative viability (SK-MES-1; first compound 0.1 µM): 0.32

From the supplement of paper PMC10307832
